Results: patent US11718604B2, “4-amino-6-(1,3-benzodioxole)picolinates and their use as herbicides” (Dow AgroSciences LLC, priority 2018, dated 2023)

Legend:
Assay type in all cases: in vivo
[1] = test system: SORVU: shattercane (Sorghum bicolor); assay: Post-emergent herbicidal test, shattercane; conditions: post-emergence, 336 h, 14 days after application, read-out: Visual Growth Reduction (%) 14 Days After Application SORVU; for pest or weed control at 17.5 g/ha: 17.5 g ai/ha; for pest or weed control at 35 g/ha: 35 g ai/ha; for pest or weed control at 70 g/ha: 70 g ai/ha; for pest or weed control at 140 g/ha: 140 g ai/ha
How it was run: (§1)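 Greenhouse-grown plants at the first or second true leaf stage (7-21 d, ~15 h photoperiod, 23-29° C day) were sprayed overhead at 187 L/ha with compound in acetone/DMSO-based spray solution containing crop oil concentrate and surfactant. Injury was scored visually after 14 d, 0-100% versus untreated plants.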

[2] = test system: IPOHE: ivyleaf morningglory (Ipomoea hederacea); assay: Post-emergent herbicidal test, ivyleaf morningglory; conditions: post-emergence, 336 h, 14 days after application, read-out: Visual Growth Reduction (%) 14 Days After Application IPOHE; for pest or weed control at 17.5 g/ha: 17.5 g ai/ha; for pest or weed control at 35 g/ha: 35 g ai/ha; for pest or weed control at 70 g/ha: 70 g ai/ha; for pest or weed control at 140 g/ha: 140 g ai/ha
How it was run: as §1

[3] = test system: SETFA: giant foxtail (Setaria faberi); assay: Post-emergent herbicidal test, giant foxtail; conditions: post-emergence, 336 h, 14 days after application, read-out: Visual Growth Reduction (%) 14 Days After Application SETFA; for pest or weed control at 17.5 g/ha: 17.5 g ai/ha; for pest or weed control at 35 g/ha: 35 g ai/ha; for pest or weed control at 70 g/ha: 70 g ai/ha; for pest or weed control at 140 g/ha: 140 g ai/ha
How it was run: as §1

[4] = test system: CIRAR: Canada thistle (Cirsium arvense); assay: Post-emergent herbicidal test, Canada thistle; conditions: post-emergence, 336 h, 14 days after application, read-out: Visual Growth Reduction (%) 14 Days After Application CIRAR; for pest or weed control at 17.5 g/ha: 17.5 g ai/ha; for pest or weed control at 35 g/ha: 35 g ai/ha; for pest or weed control at 70 g/ha: 70 g ai/ha; for pest or weed control at 140 g/ha: 140 g ai/ha
How it was run: as §1

[5] = test system: ECHCG: barnyardgrass (Echinochloa crus-galli); assay: Post-emergent herbicidal test, barnyardgrass; conditions: post-emergence, 336 h, 14 days after application, read-out: Visual Growth Reduction (%) 14 Days After Application ECHCG; for pest or weed control at 17.5 g/ha: 17.5 g ai/ha; for pest or weed control at 35 g/ha: 35 g ai/ha; for pest or weed control at 70 g/ha: 70 g ai/ha; for pest or weed control at 140 g/ha: 140 g ai/ha
How it was run: as §1

[6] = test system: ABUTH: velvetleaf (Abutilon theophrasti); assay: Post-emergent herbicidal test, velvetleaf; conditions: post-emergence, 336 h, 14 days after application, read-out: Visual Growth Reduction (%) 14 Days After Application ABUTH; for pest or weed control at 17.5 g/ha: 17.5 g ai/ha; for pest or weed control at 35 g/ha: 35 g ai/ha; for pest or weed control at 70 g/ha: 70 g ai/ha; for pest or weed control at 140 g/ha: 140 g ai/ha
How it was run: as §1

[7] = test system: VIOTR: wild violet (Viola tricolor); assay: Post-emergent herbicidal test, wild violet; conditions: post-emergence, 336 h, 14 days after application, read-out: Visual Growth Reduction (%) 14 Days After Application VIOTR; for pest or weed control at 17.5 g/ha: 17.5 g ai/ha; for pest or weed control at 35 g/ha: 35 g ai/ha; for pest or weed control at 70 g/ha: 70 g ai/ha; for pest or weed control at 140 g/ha: 140 g ai/ha
How it was run: as §1

[8] = test system: EPHHL: wild poinsettia (Euphorbia heterophylla); assay: Post-emergent herbicidal test, wild poinsettia; conditions: post-emergence, 336 h, 14 days after application, read-out: Visual Growth Reduction (%) 14 Days After Application EPHHL; for pest or weed control at 17.5 g/ha: 17.5 g ai/ha; for pest or weed control at 35 g/ha: 35 g ai/ha; for pest or weed control at 70 g/ha: 70 g ai/ha; for pest or weed control at 140 g/ha: 140 g ai/ha
How it was run: as §1

[9] = test system: BRSNN: oilseed rape, canola (Brassica napus); assay: Post-emergent herbicidal test, oilseed rape; conditions: post-emergence, 336 h, 14 days after application, read-out: Visual Growth Reduction (%) 14 Days After Application BRSNN; for pest or weed control at 17.5 g/ha: 17.5 g ai/ha; for pest or weed control at 35 g/ha: 35 g ai/ha; for pest or weed control at 70 g/ha: 70 g ai/ha; for pest or weed control at 140 g/ha: 140 g ai/ha
How it was run: as §1

[10] = test system: DIGSA: large crabgrass (Digitaria sanguinalis); assay: Post-emergent herbicidal test, large crabgrass; conditions: post-emergence, 336 h, 14 days after application, read-out: Visual Growth Reduction (%) 14 Days After Application DIGSA; for pest or weed control at 17.5 g/ha: 17.5 g ai/ha; for pest or weed control at 35 g/ha: 35 g ai/ha; for pest or weed control at 70 g/ha: 70 g ai/ha; for pest or weed control at 140 g/ha: 140 g ai/ha
How it was run: as §1

[11] = test system: CYPES: yellow nutsedge (Cyperus esculentus); assay: Post-emergent herbicidal test, yellow nutsedge; conditions: post-emergence, 336 h, 14 days after application, read-out: Visual Growth Reduction (%) 14 Days After Application CYPES; for pest or weed control at 17.5 g/ha: 17.5 g ai/ha; for pest or weed control at 35 g/ha: 35 g ai/ha; for pest or weed control at 70 g/ha: 70 g ai/ha; for pest or weed control at 140 g/ha: 140 g ai/ha
How it was run: as §1

Nc1c(F)c(-c2ccc(F)c3c2OC(F)(F)O3)nc(C(=O)O)c1Cl [Compound 8]
70%: pest or weed control at 17.5 g/ha [9]
15%: pest or weed control at 70 g/ha [7]
5%: pest or weed control at 35 g/ha [7]
80%: pest or weed control at 70 g/ha [4] | pest or weed control at 140 g/ha [4]
40%: pest or weed control at 35 g/ha [6]
10%: pest or weed control at 70 g/ha [2] | pest or weed control at 140 g/ha [2] | pest or weed control at 140 g/ha [11]
85%: pest or weed control at 70 g/ha [9]
97%: pest or weed control at 140 g/ha [9]
20%: pest or weed control at 17.5 g/ha [4]
35%: pest or weed control at 140 g/ha [7]
60%: pest or weed control at 70 g/ha [6]
0%: pest or weed control at 17.5 g/ha [1] | pest or weed control at 35 g/ha [1] | pest or weed control at 70 g/ha [1] | pest or weed control at 140 g/ha [1] | pest or weed control at 17.5 g/ha [2] | pest or weed control at 35 g/ha [2] | pest or weed control at 17.5 g/ha [3] | pest or weed control at 35 g/ha [3] | pest or weed control at 70 g/ha [3] | pest or weed control at 140 g/ha [3] | pest or weed control at 17.5 g/ha [5] | pest or weed control at 35 g/ha [5] | pest or weed control at 70 g/ha [5] | pest or weed control at 140 g/ha [5] | pest or weed control at 17.5 g/ha [7] | pest or weed control at 17.5 g/ha [8] | pest or weed control at 35 g/ha [8] | pest or weed control at 70 g/ha [8] | pest or weed control at 140 g/ha [8] | pest or weed control at 17.5 g/ha [10] | pest or weed control at 35 g/ha [10] | pest or weed control at 70 g/ha [10] | pest or weed control at 140 g/ha [10] | pest or weed control at 17.5 g/ha [11] | pest or weed control at 35 g/ha [11] | pest or weed control at 70 g/ha [11]
30%: pest or weed control at 17.5 g/ha [6]
75%: pest or weed control at 35 g/ha [4] | pest or weed control at 140 g/ha [6] | pest or weed control at 35 g/ha [9]

Nc1c(F)c(-c2ccc(Br)c3c2OC(F)(F)O3)nc(C(=O)O)c1Cl [Compound 11]
85%: pest or weed control at 35 g/ha [4] | pest or weed control at 140 g/ha [6]
20%: pest or weed control at 140 g/ha [7]
80%: pest or weed control at 17.5 g/ha [4] | pest or weed control at 70 g/ha [6]
10%: pest or weed control at 140 g/ha [1]
70%: pest or weed control at 35 g/ha [6]
0%: pest or weed control at 17.5 g/ha [1] | pest or weed control at 35 g/ha [1] | pest or weed control at 70 g/ha [1] | pest or weed control at 17.5 g/ha [2] | pest or weed control at 35 g/ha [2] | pest or weed control at 70 g/ha [2] | pest or weed control at 140 g/ha [2] | pest or weed control at 17.5 g/ha [3] | pest or weed control at 35 g/ha [3] | pest or weed control at 70 g/ha [3] | pest or weed control at 140 g/ha [3] | pest or weed control at 17.5 g/ha [5] | pest or weed control at 35 g/ha [5] | pest or weed control at 70 g/ha [5] | pest or weed control at 140 g/ha [5] | pest or weed control at 17.5 g/ha [7] | pest or weed control at 35 g/ha [7] | pest or weed control at 70 g/ha [7] | pest or weed control at 17.5 g/ha [8] | pest or weed control at 35 g/ha [8] | pest or weed control at 70 g/ha [8] | pest or weed control at 140 g/ha [8] | pest or weed control at 17.5 g/ha [10] | pest or weed control at 35 g/ha [10] | pest or weed control at 70 g/ha [10] | pest or weed control at 140 g/ha [10] | pest or weed control at 17.5 g/ha [11] | pest or weed control at 35 g/ha [11] | pest or weed control at 70 g/ha [11] | pest or weed control at 140 g/ha [11]
50%: pest or weed control at 17.5 g/ha [6]
90%: pest or weed control at 70 g/ha [4] | pest or weed control at 140 g/ha [4] | pest or weed control at 17.5 g/ha [9] | pest or weed control at 35 g/ha [9] | pest or weed control at 70 g/ha [9] | pest or weed control at 140 g/ha [9]
